From patent US8273754B2, “Substituted 1H-pyrazolo[3,4-D]pyrimidine-6-amine compounds” (ArQule, Inc., priority 2008, dated 2012) come the findings set out here.

Read-outs that look alike come from different tables or passages of the source.

For one assay, the system named is cancer cells. Nature of the assay: MTS cell growth inhibition assay (72 hours). It is filed as cell-based. The procedure, abridged:
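Growth inhibition read as formazan absorbance at 492 nm after 4 h MTS/PMS, following 72 h compound exposure at 37 °C in 1% FBS DMEM (cells pre-seeded 18 h). IC50 = 50% absorbance reduction; inhibition graded in bands.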

In another assay the target is T1, FGFR2 (N549H) (Homo sapiens, UniProt P21802, N549H).
T1 construct: purchased Millipore 14-742
T1 sequence (P21802 22-821 N549H): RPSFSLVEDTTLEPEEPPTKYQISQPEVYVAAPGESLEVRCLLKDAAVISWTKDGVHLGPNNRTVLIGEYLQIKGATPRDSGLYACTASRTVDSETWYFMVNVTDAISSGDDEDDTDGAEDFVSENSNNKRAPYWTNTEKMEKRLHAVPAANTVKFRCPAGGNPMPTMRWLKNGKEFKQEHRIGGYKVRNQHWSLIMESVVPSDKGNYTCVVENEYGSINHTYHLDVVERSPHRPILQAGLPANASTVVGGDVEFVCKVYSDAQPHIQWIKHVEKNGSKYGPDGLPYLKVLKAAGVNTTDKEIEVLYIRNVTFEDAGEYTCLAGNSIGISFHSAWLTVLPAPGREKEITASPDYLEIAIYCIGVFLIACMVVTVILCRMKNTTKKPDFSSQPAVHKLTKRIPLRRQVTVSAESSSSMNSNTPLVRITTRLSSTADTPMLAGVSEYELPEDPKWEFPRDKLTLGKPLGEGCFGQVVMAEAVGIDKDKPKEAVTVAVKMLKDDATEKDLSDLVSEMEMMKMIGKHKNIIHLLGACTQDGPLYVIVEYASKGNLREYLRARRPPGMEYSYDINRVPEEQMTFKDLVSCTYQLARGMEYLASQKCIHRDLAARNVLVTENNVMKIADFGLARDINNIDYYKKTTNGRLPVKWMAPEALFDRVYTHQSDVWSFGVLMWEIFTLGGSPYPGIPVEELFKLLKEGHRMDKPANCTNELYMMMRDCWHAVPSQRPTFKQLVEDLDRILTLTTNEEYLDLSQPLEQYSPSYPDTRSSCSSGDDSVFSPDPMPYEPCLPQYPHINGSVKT
As to the kind of experiment: fluorescent ELISA assay for inhibitors of FGFR2 kinase. In kind it is biochemical. The conditions noted are these: Pyk2 peptide substrate, 60 minutes. The protocol: The enzymatic assays described herein are conducted according to the following procedures from commercially available reagents. In one non-limiting example, a fluorescent ELISA assay is used to identify and characterize inhibitors of FGFR2 kinase as described herein. This heterogeneous assay utilizes a biotinylated peptide with a tyrosine motif as a substrate and an anti-phospho-tyrosine antibody to measure phosphorylation of the substrate. The reaction is initiated by adding the test compound, 37 μM Pyk2 substrate (Midwest Biotech, Cat. #MBT2383), 12.5 μM ATP (Roche, Cat. #11 140 965 001) and 0.5 μM FGFR2 enzyme (Millipore, Cat. #14-742) sequentially to a non-binding polypropylene V-well plate. All reagents are in an assay buffer consisting of: 50 mM Tris-HCL, 0.02 mg/ml BSA, 10 mM MgCl2, 0.1 mM Na3VO4, 1 mM EGTA, 75 μM ATP, 0.01% NP-40, 2 mM DTT and 10% glycerol. The reaction is incubated for 60 minutes. As the reaction proceeds, FGFR2 phosphorylates tyrosines in the peptide. The reaction mixture is then moved to a blocked streptavidin-coated Nunc Maxisorb plate (coated with 100 ng streptavidin from Pierce (Cat. #15-124) per well), allowing for the capture of the biotinylated peptide. Peptides are captured for 30 minutes at room temperature, the phosphorylation of peptides continues during this phase. The reaction is stopped by washing the streptavidin-coated plate 6 times with TBST. Phosphorylated peptide is detected by adding anti-phospho-tyrosine antibody (Cell Signaling, Cat. #9411, diluted 1:3000) to the streptavidin-coated plate. Unbound anti-phospho-tyrosine antibody is removed by washing the streptavidin-coated plate 6 times with TBST. Secondary detection is performed using alkaline phosphatase tagged goat anti-mouse antibody (Pierce, Cat. #31320, diluted 1:4000) for one hour. Unbound secondary antibody is removed by washing the streptavidin-coated plate 6 times with TBST. The fluorescent readout is initiated by adding to the streptavidin-coated plate Promega Attophos substrate (Promega, Cat. #S1000, dilution=6 mg/10 ml), which, when dephosphorylated by alkaline phosphatase, emits a fluorescent signal of 595 nm in wavelength when excited by a signal of 400 nm in wavelength. The reading of the 595 nm signal is done on the Perkin Elmer Envision system. Compounds which prevent FGFR2 from phosphorylating the peptide result in a lower fluorescent signal. The 595 nm fluorescent signal is directly proportional to the activity of FGFR2. Thus, the inhibition of FGFR2 by compounds is monitored by the decrease in the 595 nm fluorescent signal.

The mark [1] stands for this setting: Homo sapiens, DLD-1, 72 h, DLD-1 cells, read-out: DLD-1 MTS 72 hr at 10 μM.
Where [2] appears, read: Homo sapiens, KATO III, 72 h, KATO III cells, read-out: KATO III MTS 72 hr at 10 μM.
Where [3] appears, read: Homo sapiens, MDA-MB-231, 72 h, MDA-MB-231 cells, read-out: MDA-MB-231 MTS 72 hr at 10 μM.
[4] abbreviates: Homo sapiens, NCI-H1299, 72 h, NCI-H1299 cells, read-out: NCI-H1299 MTS 72 hr at 10 μM.
[5] abbreviates: PaCa-2, 72 h, PACA-2 cells, read-out: PACA-2 MTS 72 hr at 10 μM.

In general, IC50 refers to the concentration at which inhibition is half-maximal.

As to `Nc1nc(NC2Cc3ccccc3N(S(=O)(=O)c3ccc(Br)cc3)C2)c2cn[nH]c2n1` (stereo not drawn) [Compound 37, N4-(1-(4-bromophenylsulfonyl)-1,2,3,4-tetrahydroquinolin-3-yl)-1H-pyrazolo[3,4-d]pyrimidine-4,6-diamine], the inhibition at 10 µM in the assay on cancer cells (setting [1]), with cancer cells (setting [2]), with cancer cells (setting [3]), with cancer cells (setting [4]) and with cancer cells (setting [5]) was less than 50% in each case. Further, 3600 nM corresponded to half-maximal inhibition against FGFR2 (N549H) (IC50).

`Nc1nc(NC2Cc3ccccc3N(S(=O)(=O)c3ccc(Cl)c(Cl)c3)C2)c2cn[nH]c2n1` (stereo not drawn) [Compound 39, N4-(1-(3,4-dichlorophenylsulfonyl)-1,2,3,4-tetrahydroquinolin-3-yl)-1H-pyrazolo[3,4-d]pyrimidine-4,6-diamine]: the inhibition at 10 µM was less than 50% with cancer cells (setting [1]); 50 to 79% in the assay on cancer cells (setting [2]); less than 50% in the assay on cancer cells (setting [3]); less than 50% in the assay on cancer cells (setting [4]); less than 50% with cancer cells (setting [5]). The IC50 against FGFR2 (N549H) worked out at 880 nM.

`CC(=O)Nc1ccc(S(=O)(=O)N2CC(Nc3nc(N)nc4[nH]ncc34)Cc3ccccc32)cc1` (stereo not drawn) [Compound 40, N-(4-(3-(6-amino-1H-pyrazolo[3,4-d]pyrimidin-4-ylamino)-3,4-dihydroquinolin-1(2H)-ylsulfonyl)phenyl)acetamide]: the inhibition at 10 µM with cancer cells (setting [1]), in the assay with cancer cells (setting [2]), in the assay on cancer cells (setting [3]), in the assay with cancer cells (setting [4]) and with cancer cells (setting [5]) was less than 50% each time. On FGFR2 (N549H), this molecule displayed an IC50 of more than 30000 nM.

Regarding `COc1ccc(S(=O)(=O)N2CC(Nc3nc(N)nc4[nH]ncc34)Cc3ccccc32)cc1` (stereo not drawn) [Compound 42, N4-(1-(4-methoxyphenylsulfonyl)-1,2,3,4-tetrahydroquinolin-3-yl)-1H-pyrazolo[3,4-d]pyrimidine-4,6-diamine], the inhibition at 10 µM was less than 50% with cancer cells (setting [1]); 50 to 79% in the assay with cancer cells (setting [2]); less than 50% in the assay on cancer cells (setting [3]); less than 50% in the assay on cancer cells (setting [4]); less than 50% with cancer cells (setting [5]). Moreover, the IC50 at FGFR2 (N549H) was 15900 nM.

In the case of `Nc1nc(NC2Cc3ccccc3N(S(=O)(=O)c3ccc(F)c(Cl)c3)C2)c2cn[nH]c2n1` (stereo not drawn) [Compound 43, N4-(1-(3-chloro-4-fluorophenylsulfonyl)-1,2,3,4-tetrahydroquinolin-3-yl)-1H-pyrazolo[3,4-d]pyrimidine-4,6-diamine], the inhibition at 10 µM in the assay with cancer cells (setting [1]), in the assay on cancer cells (setting [2]), with cancer cells (setting [3]), with cancer cells (setting [4]) and with cancer cells (setting [5]) was more than 79% in each case. Besides, the IC50 against FGFR2 (N549H) stood at 270 nM.

`Nc1nc(NC2Cc3ccccc3N(S(=O)(=O)c3ccccc3F)C2)c2cn[nH]c2n1` (stereo not drawn) [Compound 45, N4-(1-(2-fluorophenylsulfonyl)-1,2,3,4-tetrahydroquinolin-3-yl)-1H-pyrazolo[3,4-d]pyrimidine-4,6-diamine]: the inhibition at 10 µM with cancer cells (setting [1]), in the assay on cancer cells (setting [2]), with cancer cells (setting [3]), in the assay on cancer cells (setting [4]) and with cancer cells (setting [5]) was less than 50% in each case. For the same molecule, half-maximal inhibition at FGFR2 (N549H) (IC50) required 380 nM.

As for `Nc1nc(NC2Cc3ccccc3N(S(=O)(=O)c3ccc(F)cc3F)C2)c2cn[nH]c2n1` (stereo not drawn) [Compound 47, N4-(1-(2,4-difluorophenylsulfonyl)-1,2,3,4-tetrahydroquinolin-3-yl)-1H-pyrazolo[3,4-d]pyrimidine-4,6-diamine], the inhibition at 10 µM in the assay with cancer cells (setting [1]), in the assay with cancer cells (setting [2]), in the assay with cancer cells (setting [3]), in the assay on cancer cells (setting [4]) and with cancer cells (setting [5]) was less than 50% in each case. The molecule further showed an IC50 on FGFR2 (N549H) of 390 nM.

For `CC(=O)c1ccc(S(=O)(=O)N2CC(Nc3nc(N)nc4[nH]ncc34)Cc3ccccc32)cc1` (stereo not drawn) [Compound 48, 1-(4-(3-(6-amino-1H-pyrazolo[3,4-d]pyrimidin-4-ylamino)-3,4-dihydroquinolin-1(2H)-ylsulfonyl)phenyl)ethanone], the inhibition at 10 µM in the assay on cancer cells (setting [1]) was more than 79%; with cancer cells (setting [2]), 50 to 79%; in the assay with cancer cells (setting [3]), more than 79%; in the assay on cancer cells (setting [4]) it was less than 50%; with cancer cells (setting [5]) it was more than 79%. Besides, the IC50 on FGFR2 (N549H) came to 17200 nM.

Consider `Cc1ccc(-c2ccc(S(=O)(=O)N3CC(Nc4nc(N)nc5[nH]ncc45)Cc4ccccc43)cc2)cc1` (stereo not drawn) [Compound 50, N4-(1-(4′-methylbiphenyl-4-ylsulfonyl)-1,2,3,4-tetrahydroquinolin-3-yl)-1H-pyrazolo[3,4-d]pyrimidine-4,6-diamine], for which the inhibition at 10 µM was 50 to 79% with cancer cells (setting [1]); 50 to 79% with cancer cells (setting [2]); less than 50% in the assay on cancer cells (setting [3]); less than 50% in the assay with cancer cells (setting [4]); 50 to 79% in the assay on cancer cells (setting [5]). This molecule returned a concentration for half-maximal inhibition (IC50) at FGFR2 (N549H) of more than 30000 nM.

Regarding `Nc1nc(NC2Cc3ccccc3N(S(=O)(=O)c3csc4ccccc34)C2)c2cn[nH]c2n1` (stereo not drawn) [Compound 51, N4-(1-(benzo[b]thiophen-3-ylsulfonyl)-1,2,3,4-tetrahydroquinolin-3-yl)-1H-pyrazolo[3,4-d]pyrimidine-4,6-diamine], the inhibition at 10 µM is less than 50% in the assay with cancer cells (setting [1]); 50 to 79% with cancer cells (setting [2]); less than 50% in the assay with cancer cells (setting [3]); less than 50% in the assay with cancer cells (setting [4]); 50 to 79% in the assay with cancer cells (setting [5]). The molecule further gave an IC50 on FGFR2 (N549H) of 3850 nM.

Consider `Nc1nc(NC2Cc3ccccc3N(S(=O)(=O)c3ccccc3Cl)C2)c2cn[nH]c2n1` (stereo not drawn) [Compound 52, N4-(1-(2-chlorophenylsulfonyl)-1,2,3,4-tetrahydroquinolin-3-yl)-1H-pyrazolo[3,4-d]pyrimidine-4,6-diamine], for which the inhibition at 10 µM in the assay with cancer cells (setting [1]), with cancer cells (setting [2]), in the assay with cancer cells (setting [3]), in the assay on cancer cells (setting [4]) and with cancer cells (setting [5]) was less than 50% throughout. On FGFR2 (N549H), this molecule yielded an IC50 of 1200 nM.

Consider `Nc1nc(NC2Cc3ccccc3N(S(=O)(=O)c3ccc(F)cc3Cl)C2)c2cn[nH]c2n1` (stereo not drawn) [Compound 53, N4-(1-(2-chloro-4-fluorophenylsulfonyl)-1,2,3,4-tetrahydroquinolin-3-yl)-1H-pyrazolo[3,4-d]pyrimidine-4,6-diamine], for which the inhibition at 10 µM in the assay on cancer cells (setting [1]), in the assay on cancer cells (setting [2]), in the assay with cancer cells (setting [3]), with cancer cells (setting [4]) and in the assay on cancer cells (setting [5]) was less than 50% each time. Also, at FGFR2 (N549H), the midpoint of inhibition, the IC50, lay at 410 nM.

Turning to `Cn1ccc(S(=O)(=O)N2CC(Nc3nc(N)nc4[nH]ncc34)Cc3ccccc32)n1` (stereo not drawn) [Compound 54, N4-(1-(1-methyl-1H-pyrazol-3-ylsulfonyl)-1,2,3,4-tetrahydroquinolin-3-yl)-1H-pyrazolo[3,4-d]pyrimidine-4,6-diamine], the inhibition at 10 µM in the assay on cancer cells (setting [1]), in the assay on cancer cells (setting [2]), in the assay with cancer cells (setting [3]), in the assay with cancer cells (setting [4]) and in the assay on cancer cells (setting [5]) was less than 50% throughout. Besides, at FGFR2 (N549H), the IC50 was more than 30000 nM.

`Nc1nc(NC2Cc3ccccc3N(S(=O)(=O)c3cc(F)ccc3F)C2)c2cn[nH]c2n1` (stereo not drawn) [Compound 55, N4-(1-(2,5-difluorophenylsulfonyl)-1,2,3,4-tetrahydroquinolin-3-yl)-1H-pyrazolo[3,4-d]pyrimidine-4,6-diamine]: the inhibition at 10 µM was more than 79% with cancer cells (setting [1]); 50 to 79% in the assay on cancer cells (setting [2]); 50 to 79% in the assay with cancer cells (setting [3]); less than 50% with cancer cells (setting [4]); more than 79% in the assay on cancer cells (setting [5]). In addition, the IC50 on FGFR2 (N549H) was determined as 190 nM.
